Values quoted from earlier work, collected in patent US20260193295A1, “CILAGICIN COMPOUNDS AND METHODS OF USE THEREOF” (priority 2022, published 2026).
Converted amounts (≈) assume the structure as drawn. Where two headings read alike, the source gives them in different places.

Test system: vancomycin-resistant Enterococci clinical isolates
Conditions: cited from earlier work
[1] = Enterococci clinical isolate code 781
[2] = Enterococci clinical isolate code 782
[3] = Enterococci clinical isolate code 783
[4] = Enterococci clinical isolate code 784
[5] = Enterococci clinical isolate code 785
[6] = Enterococci clinical isolate code 786
[7] = Enterococci clinical isolate code 787
[8] = Enterococci clinical isolate code 788
[9] = Enterococci clinical isolate code 789
[10] = Enterococci clinical isolate code 790
[11] = Enterococci clinical isolate code 791
[12] = Enterococci clinical isolate code 792
[13] = Enterococci clinical isolate code 793
[14] = Enterococci clinical isolate code 794
[15] = Enterococci clinical isolate code 795
[16] = Enterococci clinical isolate code 796
[17] = Enterococci clinical isolate code 797
[18] = Enterococci clinical isolate code 798
[19] = Enterococci clinical isolate code 799
[20] = Enterococci clinical isolate code 800
[21] = Enterococci clinical isolate code 801
[22] = Enterococci clinical isolate code 802
[23] = Enterococci clinical isolate code 803
[24] = Enterococci clinical isolate code 804
[25] = Enterococci clinical isolate code 805
[26] = Enterococci clinical isolate code 806
[27] = Enterococci clinical isolate code 807
[28] = Enterococci clinical isolate code 808
[29] = Enterococci clinical isolate code 809
[30] = Enterococci clinical isolate code 810

| Compound | MIC [1] | MIC [2] | MIC [3] | MIC [4] | MIC [5] | MIC [6] | MIC [7] | MIC [8] | MIC [9] | MIC [10] | MIC [11] | MIC [12] | MIC [13] | MIC [14] | MIC [15] | MIC [16] | MIC [17] | MIC [18] | MIC [19] | MIC [20] | further results |
| --- | --- | --- | --- | --- | --- | --- | --- | --- | --- | --- | --- | --- | --- | --- | --- | --- | --- | --- | --- | --- | --- |
| [H]/N=C(/N)N[C@H]1[C@H](O)[C@@H](O)[C@H](O[C@@H]2O[C@@H](C)[C@](O)(C=O)[C@H]2O[C@@H]2O[C@@H](CO)[C@H](O)[C@@H](O)[C@@H]2NC)[C@@H](N/C(N)=N\[H])[C@@H]1O [Streptomycin] | ≤1000 µg/mL | >1000 µg/mL | >1000 µg/mL | ≤1000 µg/mL | >1000 µg/mL | ≤1000 µg/mL | >1000 µg/mL | ≤1000 µg/mL | >1000 µg/mL | >1000 µg/mL | ≤1000 µg/mL | ≤1000 µg/mL | ≤1000 µg/mL | >1000 µg/mL | >1000 µg/mL | ≤1000 µg/mL | ≤1000 µg/mL | ≤1000 µg/mL | >1000 µg/mL | ≤1000 µg/mL | MIC [21]: ≤1000 µg/mL; MIC [22]: >1000 µg/mL; MIC [23]: >1000 µg/mL; MIC [24]: >1000 µg/mL; MIC [25]: ≤1000 µg/mL; MIC [26]: ≤1000 µg/mL; MIC [27]: >1000 µg/mL; MIC [28]: ≤1000 µg/mL; MIC [29]: >1000 µg/mL; MIC [30]: >1000 µg/mL |
| CO[C@H]1/C=C/O[C@@]2(C)Oc3c(C)c(O)c4c(O)c(c(/C=N/N5CCN(C)CC5)c(O)c4c3C2=O)NC(=O)/C(C)=C\C=C\[C@H](C)[C@H](O)[C@@H](C)[C@@H](O)[C@@H](C)[C@H](OC(C)=O)[C@@H]1C [Rifampin] | 1 µg/mL (≈ 1.22 µM) | 1 µg/mL (≈ 1.22 µM) | >4 µg/mL | ≤0.25 µg/mL | 2 µg/mL (≈ 2.43 µM) | 2 µg/mL (≈ 2.43 µM) | ≤0.25 µg/mL | >4 µg/mL | >4 µg/mL | >4 µg/mL | 1 µg/mL (≈ 1.22 µM) | 4 µg/mL (≈ 4.86 µM) | 4 µg/mL (≈ 4.86 µM) | 4 µg/mL (≈ 4.86 µM) | 2 µg/mL (≈ 2.43 µM) | >4 µg/mL | 4 µg/mL (≈ 4.86 µM) | ≤0.25 µg/mL | 2 µg/mL (≈ 2.43 µM) | 2 µg/mL (≈ 2.43 µM) | MIC [21]: 0.5 µg/mL (≈ 0.608 µM); MIC [22]: ≤0.25 µg/mL; MIC [23]: >4 µg/mL; MIC [24]: 2 µg/mL (≈ 2.43 µM); MIC [25]: 2 µg/mL (≈ 2.43 µM); MIC [26]: >4 µg/mL; MIC [27]: >4 µg/mL; MIC [28]: >4 µg/mL; MIC [29]: 2 µg/mL (≈ 2.43 µM); MIC [30]: 2 µg/mL (≈ 2.43 µM) |
| CCCCCCCCCC(=O)N[C@@H](Cc1c[nH]c2ccccc12)C(=O)N[C@H](CC(N)=O)C(=O)N[C@@H](CC(=O)O)C(=O)N[C@@H]1C(=O)NCC(=O)N[C@@H](CCCN)C(=O)N[C@@H](CC(=O)O)C(=O)N[C@H](C)C(=O)N[C@@H](CC(=O)O)C(=O)NCC(=O)N[C@H](CO)C(=O)N[C@@H]([C@H](C)CC(=O)O)C(=O)N[C@@H](CC(=O)c2ccccc2N)C(=O)O[C@@H]1C [Daptomycin] | 4 µg/mL (≈ 2.47 µM) | 2 µg/mL (≈ 1.23 µM) | 4 µg/mL (≈ 2.47 µM) | 4 µg/mL (≈ 2.47 µM) | 2 µg/mL (≈ 1.23 µM) | 0.5 µg/mL (≈ 0.309 µM) | 8 µg/mL (≈ 4.94 µM) | 1 µg/mL (≈ 0.617 µM) | 8 µg/mL (≈ 4.94 µM) | 4 µg/mL (≈ 2.47 µM) | 1 µg/mL (≈ 0.617 µM) | 4 µg/mL (≈ 2.47 µM) | 4 µg/mL (≈ 2.47 µM) | 4 µg/mL (≈ 2.47 µM) | 1 µg/mL (≈ 0.617 µM) | 2 µg/mL (≈ 1.23 µM) | 1 µg/mL (≈ 0.617 µM) | 1 µg/mL (≈ 0.617 µM) | 2 µg/mL (≈ 1.23 µM) | 2 µg/mL (≈ 1.23 µM) | MIC [21]: 2 µg/mL (≈ 1.23 µM); MIC [22]: 4 µg/mL (≈ 2.47 µM); MIC [23]: 4 µg/mL (≈ 2.47 µM); MIC [24]: 1 µg/mL (≈ 0.617 µM); MIC [25]: 2 µg/mL (≈ 1.23 µM); MIC [26]: 4 µg/mL (≈ 2.47 µM); MIC [27]: 4 µg/mL (≈ 2.47 µM); MIC [28]: 4 µg/mL (≈ 2.47 µM); MIC [29]: 4 µg/mL (≈ 2.47 µM); MIC [30]: 4 µg/mL (≈ 2.47 µM) |
| CN[C@H](CC(C)C)C(=O)N[C@H]1C(=O)N[C@@H](CC(N)=O)C(=O)N[C@H]2C(=O)N[C@H]3C(=O)N[C@H](C(=O)N[C@H](C(=O)O)c4cc(O)cc(O)c4-c4cc3ccc4O)[C@H](O)c3ccc(c(Cl)c3)Oc3cc2cc(c3O[C@@H]2O[C@H](CO)[C@@H](O)[C@H](O)[C@H]2O[C@H]2C[C@](C)(N)[C@H](O)[C@H](C)O2)Oc2ccc(cc2Cl)[C@H]1O [Vancomycin] | >64 µg/mL | 32 µg/mL (≈ 22.1 µM) | 64 µg/mL (≈ 44.2 µM) | 4 µg/mL (≈ 2.76 µM) | 2 µg/mL (≈ 1.38 µM) | 32 µg/mL (≈ 22.1 µM) | >64 µg/mL | 2 µg/mL (≈ 1.38 µM) | >64 µg/mL | >64 µg/mL | 0.5 µg/mL (≈ 0.345 µM) | >64 µg/mL | 1 µg/mL (≈ 0.69 µM) | >64 µg/mL | 32 µg/mL (≈ 22.1 µM) | 8 µg/mL (≈ 5.52 µM) | 2 µg/mL (≈ 1.38 µM) | 2 µg/mL (≈ 1.38 µM) | >64 µg/mL | 64 µg/mL (≈ 44.2 µM) | MIC [21]: 4 µg/mL (≈ 2.76 µM); MIC [22]: >64 µg/mL; MIC [23]: >64 µg/mL; MIC [24]: 16 µg/mL (≈ 11 µM); MIC [25]: 1 µg/mL (≈ 0.69 µM); MIC [26]: 0.5 µg/mL (≈ 0.345 µM); MIC [27]: >64 µg/mL; MIC [28]: 4 µg/mL (≈ 2.76 µM); MIC [29]: >64 µg/mL; MIC [30]: 1 µg/mL (≈ 0.69 µM) |
| O=C(N[C@H](CO)[C@H](O)c1ccc([N+](=O)[O-])cc1)C(Cl)Cl [Chloramphenicol] | 8 µg/mL (≈ 24.8 µM) | >32 µg/mL | 16 µg/mL (≈ 49.5 µM) | 4 µg/mL (≈ 12.4 µM) | >32 µg/mL | 16 µg/mL (≈ 49.5 µM) | 32 µg/mL (≈ 99 µM) | 8 µg/mL (≈ 24.8 µM) | 16 µg/mL (≈ 49.5 µM) | 8 µg/mL (≈ 24.8 µM) | 8 µg/mL (≈ 24.8 µM) | 4 µg/mL (≈ 12.4 µM) | 8 µg/mL (≈ 24.8 µM) | 8 µg/mL (≈ 24.8 µM) | 32 µg/mL (≈ 99 µM) | 8 µg/mL (≈ 24.8 µM) | 8 µg/mL (≈ 24.8 µM) | 16 µg/mL (≈ 49.5 µM) | >32 µg/mL | 16 µg/mL (≈ 49.5 µM) | MIC [21]: 8 µg/mL (≈ 24.8 µM); MIC [22]: 8 µg/mL (≈ 24.8 µM); MIC [23]: 8 µg/mL (≈ 24.8 µM); MIC [24]: >32 µg/mL; MIC [25]: 8 µg/mL (≈ 24.8 µM); MIC [26]: 8 µg/mL (≈ 24.8 µM); MIC [27]: 32 µg/mL (≈ 99 µM); MIC [28]: 8 µg/mL (≈ 24.8 µM); MIC [29]: 8 µg/mL (≈ 24.8 µM); MIC [30]: 8 µg/mL (≈ 24.8 µM) |
| Teicoplanin | >64 µg/mL | 0.5 µg/mL | 2 µg/mL | 0.5 µg/mL | 0.5 µg/mL | 0.25 µg/mL | >64 µg/mL | 1 µg/mL | >64 µg/mL | 1 µg/mL | 0.5 µg/mL | 1 µg/mL | 0.5 µg/mL | 64 µg/mL | 0.5 µg/mL | 1 µg/mL | 1 µg/mL | 1 µg/mL | 0.5 µg/mL | 0.5 µg/mL | MIC [21]: 1 µg/mL; MIC [22]: 64 µg/mL; MIC [23]: >64 µg/mL; MIC [24]: 0.5 µg/mL; MIC [25]: 0.5 µg/mL; MIC [26]: 1 µg/mL; MIC [27]: 1 µg/mL; MIC [28]: 0.5 µg/mL; MIC [29]: 64 µg/mL; MIC [30]: 0.5 µg/mL |
| Penicillin | 2 µg/mL | 2 µg/mL | >32 µg/mL | 2 µg/mL | 4 µg/mL | 1 µg/mL | 32 µg/mL | 1 µg/mL | ≤0.12 µg/mL | >32 µg/mL | 2 µg/mL | >32 µg/mL | 2 µg/mL | >32 µg/mL | 4 µg/mL | 2 µg/mL | 0.5 µg/mL | 1 µg/mL | 2 µg/mL | 2 µg/mL | MIC [21]: 1 µg/mL; MIC [22]: >32 µg/mL; MIC [23]: >32 µg/mL; MIC [24]: 4 µg/mL; MIC [25]: 2 µg/mL; MIC [26]: 8 µg/mL; MIC [27]: >32 µg/mL; MIC [28]: 2 µg/mL; MIC [29]: 1 µg/mL; MIC [30]: 2 µg/mL |
| CC1(C)S[C@@H]2[C@H](NC(=O)[C@H](N)c3ccccc3)C(=O)N2[C@H]1C(=O)O [Ampicillin] | 1 µg/mL (≈ 2.86 µM) | 1 µg/mL (≈ 2.86 µM) | 64 µg/mL (≈ 183 µM) | 1 µg/mL (≈ 2.86 µM) | 2 µg/mL (≈ 5.72 µM) | 0.5 µg/mL (≈ 1.43 µM) | 8 µg/mL (≈ 22.9 µM) | 1 µg/mL (≈ 2.86 µM) | 0.12 µg/mL (≈ 0.343 µM) | 64 µg/mL (≈ 183 µM) | 1 µg/mL (≈ 2.86 µM) | 64 µg/mL (≈ 183 µM) | 1 µg/mL (≈ 2.86 µM) | 64 µg/mL (≈ 183 µM) | 2 µg/mL (≈ 5.72 µM) | 2 µg/mL (≈ 5.72 µM) | 1 µg/mL (≈ 2.86 µM) | 1 µg/mL (≈ 2.86 µM) | 1 µg/mL (≈ 2.86 µM) | 1 µg/mL (≈ 2.86 µM) | MIC [21]: 1 µg/mL (≈ 2.86 µM); MIC [22]: 64 µg/mL (≈ 183 µM); MIC [23]: 128 µg/mL (≈ 366 µM); MIC [24]: 1 µg/mL (≈ 2.86 µM); MIC [25]: 1 µg/mL (≈ 2.86 µM); MIC [26]: 4 µg/mL (≈ 11.4 µM); MIC [27]: 32 µg/mL (≈ 91.6 µM); MIC [28]: 2 µg/mL (≈ 5.72 µM); MIC [29]: 0.5 µg/mL (≈ 1.43 µM); MIC [30]: 1 µg/mL (≈ 2.86 µM) |
